# Source: patent US20250345433A1, “Drug For Treating Disorders Of An Organ Or Tissue Function And Diseases Accompanied By Such Disorders, And The Method For Obtaining It” (priority 2018, published 2025)
# Columns and labels:
# [1] = test system: male Wistar rats with hemorrhagic stroke; experiment: Hemorrhagic stroke (intracerebral hemorrhage) model in rats; type: in vivo, rat
# Description: In the study, male Wistar rats (180-200 g) were used. […] Drug administration was started 1 hour after the pathology simulation and then daily, not earlier than 1 hour before the behavioral tests.
# This method involves the double introduction of autologous blood into the specified structure of the brain of animals. The hemorrhagic stroke simulated in this way in rats in localization corresponds to intracerebral hemorrhages that occur in humans when the lenticularity arteries rupture. The total volume of hematoma in animals corresponds to approximately 40-50 ml in terms of human body weight.
# [2] = test system: children with hyperactivity; experiment: ADHD/hyperkinetic disorder in children vs. Piracetam (SNAP-IV, TOVA, fine motor); type: in vivo, human
# Text: Materials and methods of examination. The study included 57 children aged 6 to 9 years (40 boys and 17 girls) who attended day care centers and elementary schools of secondary schools.
# • 1. The presence of clinical signs of hyperactivity that meet the criteria of ICD-10 (F 90); 2. Age-6-9 years; • 3. Intellectual indicators are not lower than the average on the Wechsler scale (more than 90 points).
# Children with behavioral disorders due to other mental disorders were excluded from the study. For 2 months, the main group of children (n=30) with clinical signs of GH received monotherapy for the claimed medicament in 2 tablet 3 times a day. Children from the control group, similar to the main group by clinical signs, sex and age (n=27), were administered Piracetam in standard age doses for the same period.
# The assessment of the severity of GH according to the criteria of attention disorder, hyperactivity and impulsivity in the examined children was carried out using the SNAP-IV scale (Swanson J., 1992). The psychophysiological test TOVA (The Test of Variables of Attention), allowed to assess the degree of attention disorders (omissions of significant stimuli) and impulsivity (false presses of a button), information processing speed (reaction time) in relation to standard indicators (Greenberg F M, Waldman I D, 1993). The child's fine motor skills were evaluated using tests from the battery of A. R. Luria (1973), selected by testing on these age groups with the development of criteria for scoring points Zh. M. Glozman, et al. (2006).
# The results of the study. At the first stage of the study, using the SNAP-IV scale (Swanson J., 1992) in children of the main and control groups, an initial assessment of the severity of GH was carried out separately for each of the criteria (attention disorder, hyperactivity and impulsivity). Repeated similar assessment was carried out after a two-month course of therapy with the declared Drug in the main group and Piracetam therapy in the control group. The obtained indicators were compared with statistical processing (Table 28).
# The computer-aided testing of TOVA (“Test of Variables of Attention”) was represented by three groups of tests, which allow judging the degree of attention disorder (missing significant stimuli), impulsivity (false pressing a button), information processing speed (reaction time). Baseline indicators of children with GH before treatment were compared with those of children of the main group (treatment with the claimed Drug) and indicators of children of the control group (Piracetam therapy) after a two-month course of treatment.
"children with increase in disinhibition, excitability ([2]; 2 months)",children with sleep disturbance ([2]; 2 months),"number of children with increase in disinhibition, excitability ([2]; 2 months, n = 27)","number of children with sleep disturbance ([2]; 2 months, n = 27)",SMILES,decrease of the area of the hemorrhagic lesion ([1]; 7th day compared with the 3rd day),"total time spent in the dark compartment, passive avoidance reaction, M (QI; Q3) ([1]; 7th day of the study)",difference in motor preference indices ([1]; compared to negative test (Preparation 4)),"TOVA false alarm ([2]; First half of the test, after treatment, before 15.3 ± 2.2)","TOVA Omissions of significant incentives ([2]; First half of the test, after treatment, before 19.1 ± 2.4)","TOVA response time ([2]; First half of the test, after treatment, before 795 ± 103)","TOVA false alarm ([2]; The second half of the test, after treatment, before 29.2 ± 3.3)","TOVA Omissions of significant incentives ([2]; The second half of the test, after treatment, before 29.5 ± 3.3)","TOVA response time ([2]; The second half of the test, after treatment, before 741 ± 126)","Total mark of fine motor quality ([2]; after treatment, before 2.24 ± 0.21)","SNAP-IV impulsivity ([2]; after two-month treatment, before 2.40 ± 0.28)","SNAP-IV hyperactivity ([2]; after two-month treatment, before 2.64 ± 0.29)","SNAP-IV disorder of attention ([2]; after two-month treatment, before 2.76 ± 0.31)"
–,–,–,–,"COCCOC(=O)C1=C(C)NC(C)=C(C(=O)OC(C)C)C1c1cccc([N+](=O)[O-])c1 (centres unmarked) [Nimodipine, nimodipine]",16.7%,171.00 (163.00; 175.00) s,24.22%,–,–,–,–,–,–,–,–,–,–
11.1%,26%,3,7,NC(=O)CN1CCCC1=O [Piracetam],–,–,–,12.6 ± 3.1%,13.5 ± 1.4 %,745 ± 87 ms,20.5 ± 2.9%,16.9 ± 2.9 %,665 ± 77 ms,1.62 ± 0.16,2.36 ± 0.20,2.46 ± 0.11,2.52 ± 0.13
